Measurements: patent US8334299B2, “β-carboline for the treatment of neurodegenerative diseases” (Ellneuroxx, Ltd., priority 2007, dated 2012)

Assays:
[1] = tested on: midbrain cells in culture; assay: ATP content of midbrain culture; type: cell-based, mice; details: 50 μM, 48 hours
Procedure: FIG. 4c ATP concentration (ATP content) after incubation with 50 μM 9-methyl-β-carboline (9-Me-BV) for 48 hours 10 DIV-12 DIV.
In 48 hours about 20% of the cells in culture died. In cultures with a 9-Alkyl-β-carboline only about 10% of the cells died under the same conditions (FIG. 4b). Thus, the findings are in line with the LDH findings. ATP provides the cell with energy. […] The enzyme caspase-3 is an indicator for apoptosis. After 24 hours, the enzyme activity was reduced which hints at a reduction of apoptotic processes, after 48 hours, however, it was increased (FIG. 4d). The last finding hints at a switch of culture cells from reduced necrosis to apoptosis, thus a more precise regulation of cell death.

[2] = tested on: neurons (total); assay: Total number of neurons in midbrain culture (different dyes); type: cell-based, mice; details: 50 μM, 48 hours; not as much as dopaminergic neurons
Procedure: FIG. 3 Percentage of neurons (total) after incubation with 50 μM 9-methyl-β-carboline for 48 hours from 10 DIV-12 DIV.
9-methyl-β-carboline was used to show whether only dopaminergic neurons were influenced, or other neurons or glial cells as well. This question can be answered by the use of different dyes.

[3] = tested on: dopaminergic neurons; assay: 3H-dopamine uptake (dopamine transport capacity) in midbrain culture; type: cell-based, mice; details: 50 μM, 48 hours, 10 DIV-12 DIV
Procedure: FIG. 2b Dopamine transport capacity of dopaminergic neurons after 48 hours. ^3H-dopamine uptake after incubation with 50 μM 9-Me-BC for 48 hours from 10 DIV-12 DIV.
(§1) To obtain further hints that the number of dopaminergic neurons really has increased, the dopamine concentration was measured. […] Another characteristic and specificity of dopaminergic neurons is the transport of dopamine into the neurons. Dopamine cannot permeate the outer membrane of neurons because of its hydrophilic character. It must be actively and energy-dependently transported through the DAT mechanism.

[4] = tested on: dopaminergic neurons; assay: Dopamine concentration in midbrain culture; type: cell-based, mice; details: 50 μM, 48 hours, 10 DIV-12 DIV
Procedure: FIG. 2a Dopamine concentration (dopamine content) after incubation with 50 μM 9-methyl-β-carboline for 48 hours from 10 DIV-12 DIV.
as §1

[5] = tested on: undifferentiated multipotent neuronal precursor cells from the midbrain of mouse embryos; assay: Differentiation of multipotent neuronal precursor cells with compound in culture medium; type: cell-based; details: 50 μM final concentration once per week
Procedure: To verify if 9-methyl-β-carboline increases the efficiency of culture media for the experiments with neurons and for tissue engineering, pilot experiments were carried out by way of example with undifferentiated multipotent neuronal precursor cells from the midbrain of mouse embryos (embryonic day 14). By suitable cultivation procedures a cell suspension was produced which was kept for four weeks in a medium that contained, inter alia, growth factors from fibroblasts and the skin (epidermal growth factor). After this time the neuronal precursor cells were differentiated in a medium to promote the maturation of neurons. After a week, about 40% of the cells could be stained by a neuronal marker (β-tubulin, type III). Most other cells were glial cells. A small percentage of the neurons could be colored additionally with the antibody for tyrosin hydroxylase (˜3%). This means that about three percent of the neurons were from the dopaminergic cell type. The enzyme tyrosin hydroxylase can only be found in the midbrain in dopaminergic neurons.
Under corresponding conditions 9-methyl-β-carboline (50 μM final concentration) were added to the culture medium once per week, also once to the differentiation medium. […]

[6] = tested on: dopaminergic neurons; assay: Primary midbrain culture, tyrosin hydroxylase staining and counting of dopaminergic neurons; type: cell-based, mice
Procedure: The experiments were carried out with the human neuroblastoma cell line (SH-SY5Y-cells) and with a cell culture of primary nerve cells from the mice embryo midbrain. […] Moreover, the mentioned compounds induce in the primary culture from the mice embryo midbrain the generation of new, differentiated and functional dopaminergic neurons.
To this aim midbrain cultures were prepared and kept for 10-12 days (DIV=Days in vitro) in an appropriate medium to accustom to in vitro conditions. Then 9-methyl-β-carboline was added in increasing concentrations and it was waited for 48 hours. Dopaminergic neurons were identified by staining with tyrosin hydroxylase. This enzyme occurs only in dopaminergic midbrain neurons. The number of dopaminergic neurons can be counted reliably with this method. In addition, hints can be obtained whether the dopaminergic neurons are mature or if they are precursor cells. The mature cells have characteristic extensions which also contain tyrosin hydroxylase.

[7] = tested on: midbrain cells in culture; assay: Dead (necrotic) cells by propidium iodide staining of cell nuclei; type: cell-based, mice; details: 48 hours, 50 μM; control about 20%
Procedure: FIG. 4b Percentage of dead (necrotic) cells after incubation with 50 μM 9-methyl-β-carboline for 48 hours 10 DIV-12 DIV.
Dying cells release the enzyme lactate dehydrogenase (LDH) into the medium. Since cells always die in culture always a small LDH concentration can be detected in the medium as an indirect measure for the vitality of the culture. Compared to control conditions the LDH concentration decreased after incubation with 9-methyl-β-carboline in a dose-dependent manner with a concentration up to 50 μM (FIG. 4a). The number of dead cells can be quantified by staining the cell nuclei with propidium iodide.

[8] = tested on: Sonic Hedgehog, Wnt 1, Wnt 5a, engrailed 1, Nurr 1, Pitx 3, Aldh1a1, DAT, tyrosin hydroxylase; assay: Real-time-RT-PCR of neurotrophic transcription factors and dopamine markers in midbrain cultures; type: cell-based, mice; details: 50 μM, 48 hours and 48 hours after removal
Procedure: FIG. 7 Evidence of gene expression of neurotrophic transcription factors and dopamine markers with real-time-RT-PCR after incubation with 50 μM 9-methyl-β-carboline for 48 hours 10 DIV-12 DIV.
For this purpose, real-time-RT-PCR experiments were carried out. In this quantitative method the transcription of selected genes is measured. We selected genes which are enhanced under proliferation and differentiation conditions and such that are of importance for the formation, stability and degradation of dopaminergic neurons. The analyses were conducted in midbrain cultures after exposition to 50 μM 9-methyl-β-carboline for 48 hours and 48 hours after removal of 9-methyl-β-carboline. Control cultures were kept simultaneously under the same conditions. […] Moreover, factors were increased which are activated during the formation of dopaminergic precursor cells (progenitor cells) (Aldh1a1), the dopamine transporter (DAT) and tyrosin hydroxylase.

Cn1c2ccccc2c2ccncc21 [9-methyl-β-carboline]
concentration of ATP [1]: increased | total number of neurons [2]: increases | neuronal transport capacity of dopamine (3H-dopamine uptake) [3]: increases | dopamine concentration (dopamine content) [4]: slightly increased without reaching significance level | increase of percentage of dopaminergic cells [5]: 25% | increase of amount of neurons compared to control conditions ([5]; 3 independent experiments): 15% | increase in dopaminergic neurons after inactivation of the dopamine transporter DAT ([6]; 50 μM 9-Me-BC with DAT inhibitor GBR12909, 48 hours): does not occur | cellular extensions and branching of dopaminergic neurons ([6]; 50 μM, 48 hours, vs control without compound): significantly more cellular extensions | number of dopaminergic neurons ([6]; 10-200 μM, 48 hours, 10 DIV-12 DIV, increase up to ca. 100 μM): increased dose-dependently | cells in culture that died [7]: about 10% | transcription of Aldh1a1, dopamine transporter (DAT) and tyrosin hydroxylase [8]: increased | transcription of Sonic Hedgehog, Wnt 1, Wnt 5a, engrailed 1, Nurr 1 and Pitx 3 [8]: activated
